Reference: paper PMC6934184, “Selective DNA-PKcs inhibition extends the therapeutic index of localized radiotherapy and chemotherapy” (The Journal of Clinical Investigation, 2019)

Columns and labels:
[1] = tested on: Huh7 subcutaneous xenografts; assay: subcutaneous Huh7 xenograft with intratumoral doxorubicin-eluting beads; format: in vivo, CD-1 nude mice
Description: DC M1 beads were loaded with doxorubicin at 25 mg/mL as described in Supplemental Methods. Huh7 cells (5 × 10^6 cells per mouse in 50 μL, 50% vol/vol Matrigel) were implanted s.c. into the right flank of female CD-1 nude mice to generate subcutaneous Huh7 xenografts (180–220 mm^3). Mice were then treated with 5 μL doxorubicin-loaded or unloaded beads suspended in 30 μL saline administered via an intratumoral injection along the length of each tumor using a 29G needle. One hour after bead implantation, twice-daily dosing with 30 mg/kg NU5455 or vehicle control (1% vol/vol acetic acid in water) was commenced via oral gavage (9-hour dosing interval) and continued for up to 20 days. Tumor volumes were calculated daily using bilateral caliper measurements as described in Supplemental Methods, and body weight measurements taken daily throughout treatment. […]
γH2AX immunohistochemistry in HCC tumor xenografts
FFPE tumor sections (4 µm) were dewaxed in xylene and hydrated in descending concentrations of ethanol. Endogenous tissue peroxidase activity was quenched using 3% v/v hydrogen peroxide. Antigen retrieval was performed using 1 mM EDTA, pH 8.0 in a microwave (Kenwood). Tissue sections were blocked for avidin and biotin using the […]
Avidin/Biotin Blocking Kit (Vector Laboratories), and washed in TBST be tween all subsequent steps. Slides were blocked in 20% v/v pig serum in DI water, and sections incubated with an antibody against γH2AX ( 20E3, Cell Signaling Technology #9718, 1 in 200 in TBST) in a humidified container at 4°C overnight.
Sections were th en incubated with polyclonal swine anti -rabbit IgG, biotinylated (Dako #E0353, 1 in 200 in TBST), followed by VectaStain RTU Elite ABC reagent (Vector Laboratories). Slides were stained using DAB Peroxidase Substrate Kit (Vector Laboratories) prepared according to the manufacturer’s instructions. Slides were washed in DI water, then counterstained in filtered haematoxylin s olution. Background staining was minimized by exposure to acid alcohol solution (1% v/v hydrochloric acid in 70% v/v ethanol, Fisher), and staining blued by incubation in Scott’s tap water. Stained slides were then dehydrated in ascending concentrations of ethanol, followed by clearing in xylene. Glass coverslips (Dako) were mounted onto slides using DPX mounting medium. pDNA-PKcs Ser2056 immunohistochemistry in HCC tumor xenografts
Tumor sections were dewaxed in xylene, hydrated, and endogenous peroxidase activity quenched as detailed above. Antigen retrieval was performed in 1X citrate buffer (10 mM citric acid (Acros), pH 6.0 + 0.5% v/v Tween 20), using a decloaker (A. Menarini Diagnostics).
Tissue sections were blocked in 1% w/v BSA and 1% v/v normal go at serum in PBS (1 hour, RT). Sections were then incubated at 4°C overnight in a humidified container with an antibody against pDNA -PKcs Ser2056 (Abcam #18192, 1:1000 in 1% w/v BSA and 1% v/v […]
Sections were washed with TBST before incuba tion with EnVision+ anti -rabbit Polymer-HRP solution (Dako #K4002). Slides were washed in TBST , and antibody conjugates visualized by incubation with ImmPACT DAB peroxidase substrate working solution. […]
IHC slides were digitized via conversion using the Aperio ScanScope CS Brightfield scanner (Leica Biosystems) at x20 zoom. Percentage hepatocyte nuclear positivity for pDNA -PKcs Ser2056 and γH2AX was determined using a nuclear algorithm generated with the Aperio ImageScope software v11.2.0.780 (Leica Biosystems). […]

[2] = tested on: A549 cells; assay: γH2AX and 53BP1 foci after 10 Gy; format: cell-based, human; conditions: 5 μM, 5 hours after irradiation
Description: (§1) Cell line γH2AX and 53BP1 foci immunofluorescence and quantitation
(§2) Cells grown on coverslips or in 96-well plates were treated with 1 or 5 µM NU5455 or DMSO 1 hour prior to irradiation (0, 2.5 or 10 Gy) using an RS 320 X-ray Research System (Gulmay Medical). At set timepoints (15 or 30 minutes, or 1, 4, 5, 6, or 24 hours post-irradiation), cells were washed and fixed in methanol or 3% paraformaldehyde (PFA). Cells were blocked and permeabilized in 1% (v/v) goat serum/1% (w/v) BSA/0.1% (v/v) Triton X100 or 0.1% (v/v) Triton X100 containing 10% (w/v) dried milk powder and 2% (w/v) bovine serum albumin, followed by incubation with antibodies against γH2AX (JBW301, Millipore #05-636) and/or 53BP1 (Cell Signaling #4937). Cells were then washed and incubated with Alexa Fluor 488 goat anti-mouse and/or Alexa Fluor 568 goat anti -rabbit antibodies (A11001 or A11011 respectively, Invitrogen). In A549 and Calu-6, cells were Hoechst stained (5 µg/ml), and the average numbers of γH2AX and 53BP1 foci per cell were quantified from 400 nuclei per sample using an In Cell analyzer 1000 (GE Healthcare). For MCF7 cells, coverslips were mounted using Vectashield mounting medium with DAPI (Vector Labs) and imaged using a Leica TCS SPE confocal fluorescence microscope. Total fluorescence intensity was determined using ImagePro Plus 5.0 software (Media Cybernetics).
(§3) Clonogenic survival assays […]

[3] = tested on: Calu-6 cells; assay: γH2AX and 53BP1 foci after 10 Gy; format: cell-based, human; conditions: 5 μM, 5 hours after irradiation
Description: as §1, §2, §3

CN(C(=O)CN1CCOCC1)c1ccc2sc3c(-c4cccc5c(=O)cc(N6CC7CCC(C6)O7)oc45)cccc3c2c1 [NU5455]
DNA-PKcs phosphorylation (Ser2056) in tumors ([1]; 72 hours of treatment, doxorubicin-loaded beads, immunohistochemistry): reduced by NU5455 treatment | DNA damage (γH2AX) in area surrounding doxorubicin-eluting beads ([1]; 72 hours, immunohistochemistry): significantly augmented | mean RTV4 value, monotherapy ([1]; NU5455 30 mg/kg b.i.d. with unloaded beads, or doxorubicin beads with vehicle): 10.6 days | body weight or clinical condition versus vehicle alone ([1]; NU5455 30 mg/kg oral b.i.d. + doxorubicin-eluting beads): no additional impact | mean RTV4 value, combination ([1]; NU5455 30 mg/kg oral b.i.d. + intratumoral doxorubicin-eluting beads): 17.8 days | number of colocalized γH2AX and 53BP1 foci [2]: significant increase | number of colocalized γH2AX and 53BP1 foci [3]: significant increase
